≈ marks a conversion by molar mass, not a printed value. Like-named read-outs stand apart in the source and are kept apart here.
Experiments:
[1] = tested on: E. coli NCTC 13353 (CTX-M15, OXA-1); test: Antibacterial activity, MIC by agar dilution (CLSI); type: cell-based; settings: Escherichia coli
Method: (§1) The biological activity of representative compounds according to the invention against various bacterial strains was investigated. In a typical study, overnight grown bacterial cultures were diluted appropriately and inoculated on the agar media containing doubling dilutions of the test compounds. Observations for growth or no growth was performed after 16-20 hours of incubation at 35±2° C. in the ambient air. The overall procedure was performed as per Clinical and Laboratory Standards Institute (CLSI) recommendations, (Clinical and Laboratory Standards Institute (CLSI), Performance Standards for Antimicrobial Susceptibility Testing, 20th Informational Supplement, M07-A9, Volume 32, No. 2, 2012). Molten Mueller Hinton Agar (BD, USA) containing serial dilutions of each antibacterial agent were poured on to the plates and allowed to solidify. Appropriate suspensions from the freshly grown cultures were prepared in normal saline so that about 10^4 CFU/spot of the organism was delivered on to the drug containing agar plates using automated multipoint inoculator (Mast, UK). The plates were incubated in Biochemical oxygen demand (BOD) incubator at 37° C. for 18 hours and then examined for growth.
Table 2 details the antibacterial activity of representative compounds according to invention, against various Multi Drug Resistant (MDR) Gram-negative bacterial strains. The strains selected for study included E. coli NCTC 13353 producing CTX-M15 and OXA-1 beta-lactamase enzymes; K. pneumoniae H521 producing KPC, SHV, TEM beta-lactamase enzymes; and K. pneumoniae S48 producing NDM, SHV, TEM beta-lactamase enzymes. The activities are expressed as Minimum Inhibitory Concentrations (MICs) (mcg/ml).

[2] = tested on: K. pneumoniae H521 (KPC, SHV, TEM); test: as above; type: cell-based; settings: Klebsiella pneumoniae
Method: as §1
(§2) The strains selected for study included E. coli NCTC 13353 producing CTX-M15 and OXA-1 beta-lactamase enzymes; K. pneumoniae H521 producing KPC, SHV, TEM beta-lactamase enzymes; and K. pneumoniae S48 producing NDM, SHV, TEM beta-lactamase enzymes. The activities are expressed as Minimum Inhibitory Concentrations (MICs) (mcg/ml).

[3] = tested on: K. pneomoniae S48 (NDM, SHV, TEM); test: as above; type: cell-based, K. pneumoniae; settings: Klebsiella pneumoniae
Method: as §1, §2

[4] = target: T1, Class A beta-lactamase, K. pneumoniae ATCC 700603 (SHV 18) (Klebsiella pneumoniae, UniProt P0AD64, E235K/G234A/R39S); test: biochemical
T1 construct: preincubated mixture of crude enzyme and the agents; endogenous in cells; host or cells: K. pneumoniae ATCC 700603
Method: (§3) Determination of enzyme inhibition activity: Concentration of the inhibitor required to inhibit 50% of enzymatic activity was measured by adding a chromogenic substrate, Nitrocefin (100 uM, 5 min) to the preincubated mixture of crude enzyme and the agents (37° C., 10 min). Absorbance was measured at 485 nm by UV-spectrophotometer. The IC50 was calculated by plotting absorbance against concentration through Sigmoidal dose response curve using Graph Pad software.
(§4) The enzyme inhibition was expressed as IC50.

[5] = tested on: T2, Class C beta-lactamase, E. coli M50 (CMY/DHA); type: biochemical; settings: read-out: Beta-lactamase enzyme inhibition IC50
T2 construct: no borders, tags or purification printed
Method: as §3, §4

[6] = target: T3, Class D beta-lactamase, A. baumannii NCTC 13301 (OXA 23) (Acinetobacter baumannii, UniProt Q9L4P2); test: Beta-lactamase enzyme inhibition (nitrocefin, crude enzyme); type: biochemical; settings: Class D A. baumannii NCTC 13301 (OXA 23); read-out: Beta-lactamase enzyme inhibition IC50
T3 construct: preincubated mixture of crude enzyme and the agents; endogenous in cells; host or cells: A. baumannii NCTC 13301
Method: as §3, §4

[7] = NCTC13353, Table 2, E. Coli NCTC 13353 (CTX-M15, OXA-1), read-out: MIC
[8] = Table 2, K. pneumoniae H521 (KPC, SHV, TEM), read-out: MIC
[9] = Table 2, K. pneomoniae S48 (NDM, SHV, TEM), read-out: MIC

T1 sequence (P0AD64 22-286 R39S/G234A/E235K): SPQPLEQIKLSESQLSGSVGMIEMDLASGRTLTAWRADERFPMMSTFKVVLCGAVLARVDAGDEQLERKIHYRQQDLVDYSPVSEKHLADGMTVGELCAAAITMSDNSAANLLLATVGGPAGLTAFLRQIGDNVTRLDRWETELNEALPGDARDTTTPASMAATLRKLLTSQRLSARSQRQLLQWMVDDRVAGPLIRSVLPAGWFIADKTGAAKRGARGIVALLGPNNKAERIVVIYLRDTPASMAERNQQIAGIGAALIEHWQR
T3 sequence (Q9L4P2 18-273): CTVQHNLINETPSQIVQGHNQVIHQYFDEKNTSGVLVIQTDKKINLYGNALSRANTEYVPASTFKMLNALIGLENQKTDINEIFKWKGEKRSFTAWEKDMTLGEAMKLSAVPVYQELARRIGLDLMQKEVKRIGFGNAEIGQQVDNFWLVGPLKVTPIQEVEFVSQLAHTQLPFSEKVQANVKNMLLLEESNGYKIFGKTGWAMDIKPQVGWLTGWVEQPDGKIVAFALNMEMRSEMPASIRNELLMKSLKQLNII

SMILES | MIC [1, 7] [µg/mL] | MIC [2, 8] [µg/mL] | MIC [3, 9] [µg/mL] | IC50 [4] [nM] | IC50 [5] [nM] | IC50 [6] [nM] | MIC ([1]; NCTC13353) [µg/mL] | MIC [2] [µg/mL] | MIC [3] [µg/mL]
O=C(Cc1cccc(OC[C@@H]2CCNC2)c1)NNC(=O)[C@@H]1CC[C@@H]2CN1C(=O)N2OS(=O)(=O)O [Example 60, (2S,5R)-sulfuric acid mono-[2-(N′-{2-[3-((R)-pyrrolidin-3-ylmethoxy)-phenyl]-acetyl}-hydrazinocarbonyl)-7-oxo-1,6-diaza-bicyclo[3.2.1]oct-6-yl]ester] | 1 (≈ 2.01 µM) | 2 (≈ 4.02 µM) | 1 (≈ 2.01 µM) | 45 | 41 | 1280 |  |  | 
O=C(Cc1ccc(OC(=O)[C@@H]2CCCN2)cc1)NNC(=O)[C@@H]1CC[C@@H]2CN1C(=O)N2OS(=O)(=O)O [Example 25, (S)-pyrrolidine-2-carboxylic acid 4-{2-oxo-2-[N′-((2S,5R)-7-oxo-6-sulphooxy-1,6-diaza-bicyclo[3.2.1]octane-2-carbonyl)-hydrazino]ethyl}-phenyl ester] | 0.5 (≈ 0.977 µM) | 1 (≈ 1.95 µM) | 1 (≈ 1.95 µM) | 16 | 11 | 329 |  |  | 
C[C@H](N)COc1ccc(CC(=O)NNC(=O)[C@@H]2CC[C@@H]3CN2C(=O)N3OS(=O)(=O)O)cc1 [Example 43, (2S,5R)-sulfuric acid mono-[2-(N′-{2-[4-((S)-2-amino-propoxy)-phenyl]-acetyl}-hydrazinocarbonyl)-7-oxo-1,6-diaza-bicyclo[3.2.1]oct-6-yl]ester] | 0.5 (≈ 1.06 µM) | 2 (≈ 4.24 µM) | 0.5 (≈ 1.06 µM) | 386 | 37 | 522 |  |  | 
CC(C)[C@H](N)C(=O)Oc1ccc(CC(=O)NNC(=O)[C@@H]2CC[C@@H]3CN2C(=O)N3OS(=O)(=O)O)cc1 [Example 24, (S)-2-amino-3-methyl-butyric acid 4-{2-oxo-2-[N′-((2S,5R)-7-oxo-6-sulphooxy-1,6-diaza-bicyclo[3.2.1]octane-2-carbonyl)-hydrazino]ethyl}-phenyl ester] | 1 (≈ 1.95 µM) | 4 (≈ 7.79 µM) | 0.5 (≈ 0.974 µM) | 2 | 5 | 151 |  |  | 
C[C@@H](N)COc1cccc(CC(=O)NNC(=O)[C@@H]2CC[C@@H]3CN2C(=O)N3OS(=O)(=O)O)c1 [Example 42, (2S,5R)-sulfuric acid mono-[2-(N′-{2-[3-((R)-2-amino-propoxy)-phenyl]-acetyl}-hydrazinocarbonyl)-7-oxo-1,6-diaza-bicyclo[3.2.1]oct-6-yl]ester] | 1 (≈ 2.12 µM) | 1 (≈ 2.12 µM) | 0.5 (≈ 1.06 µM) | 36 | 32 | 1230 |  |  | 
C[C@H](N)COc1ccccc1CC(=O)NNC(=O)[C@@H]1CC[C@@H]2CN1C(=O)N2OS(=O)(=O)O [Example 40, (2S,5R)-sulfuric acid mono-[2-(N′-{2-[2-((S)-2-amino-propoxy)-phenyl]-acetyl}-hydrazinocarbonyl)-7-oxo-1,6-diaza-bicyclo[3.2.1]oct-6-yl]ester] | 2 (≈ 4.24 µM) | 2 (≈ 4.24 µM) | 2 (≈ 4.24 µM) | 110 | 99 | 1570 |  |  | 
O=C(Cc1ccccc1OC[C@@H]1CCCN1)NNC(=O)[C@@H]1CC[C@@H]2CN1C(=O)N2OS(=O)(=O)O [Example 56, (2S,5R)-sulfuric acid mono-[2-(N′-{2-[2-((S)-pyrrolidin-2-ylmethoxy)-phenyl]-acetyl}-hydrazinocarbonyl)-7-oxo-1,6-diaza-bicyclo[3.2.1]oct-6-yl]ester] | 8 (≈ 16.1 µM) | 16 (≈ 32.2 µM) | 16 (≈ 32.2 µM) | 142 | 50 | 1760 |  |  | 
C[C@H](N)COc1ccc(CC(=O)NNC(=O)[C@@H]2CC[C@@H]3CN2C(=O)N3OS(=O)(=O)O)c(F)c1 [Example 44, (2S,5R)-sulfuric acid mono-[2-(N′-{2-[2-fluoro-4-((S)-2-amino-propoxy)-phenyl]-acetyl}-hydrazinocarbonyl)-7-oxo-1,6-diaza-bicyclo[3.2.1]oct-6-yl]ester] | 1 (≈ 2.04 µM) | 2 (≈ 4.09 µM) | 1 (≈ 2.04 µM) | 58 | 31 | 561 |  |  | 
CC(C)[C@H](N)COc1ccccc1CC(=O)NNC(=O)[C@@H]1CC[C@@H]2CN1C(=O)N2OS(=O)(=O)O [Example 50, (2S,5R)-sulfuric acid mono-[2-(N′-{2-[2-((S)-2-amino-3-methyl-butoxy)-phenyl]-acetyl}-hydrazinocarbonyl)-7-oxo-1,6-diaza-bicyclo[3.2.1]oct-6-yl]ester] | 16 (≈ 32 µM) | > 32 | 16 (≈ 32 µM) | 79 | 77 | 1170 |  |  | 
O=C(Cc1ccc(OC[C@@H]2CCCN2)cc1)NNC(=O)[C@@H]1CC[C@@H]2CN1C(=O)N2OS(=O)(=O)O [Example 61, (2S,5R)-sulfuric acid mono-[2-(N′-{2-[4-((S)-pyrrolidin-2-ylmethoxy)-phenyl]-acetyl}-hydrazinocarbonyl)-7-oxo-1,6-diaza-bicyclo[3.2.1]oct-6-yl]ester] | 1 (≈ 2.01 µM) | 2 (≈ 4.02 µM) | 1 (≈ 2.01 µM) | 71 | 29 | 690 |  |  | 
C[C@H](N)C(=O)Oc1ccc(CC(=O)NNC(=O)[C@@H]2CC[C@@H]3CN2C(=O)N3OS(=O)(=O)O)cc1 [Example 23, (S)-2-amino-propionic acid 4-{2-oxo-2-[N′-((2S,5R)-7-oxo-6-sulphooxy-1,6-diaza-bicyclo[3.2.1]octane-2-carbonyl)-hydrazino]ethyl}-phenyl ester] | 0.5 (≈ 1.03 µM) | 2 (≈ 4.12 µM) | 0.5 (≈ 1.03 µM) | 3 | 23 | 240 |  |  | 
C[C@H](N)COc1cccc(CC(=O)NNC(=O)[C@@H]2CC[C@@H]3CN2C(=O)N3OS(=O)(=O)O)c1 [Example 41, (2S,5R)-sulfuric acid mono-[2-(N′-{2-[3-((S)-2-amino-propoxy)-phenyl]-acetyl}-hydrazinocarbonyl)-7-oxo-1,6-diaza-bicyclo[3.2.1]oct-6-yl]ester] | 0.5 (≈ 1.06 µM) | 1 (≈ 2.12 µM) | 0.5 (≈ 1.06 µM) | 38 | 53 | 990 |  |  | 
O=C(Cc1ccccc1O[C@H]1CCNC1)NNC(=O)[C@@H]1CC[C@@H]2CN1C(=O)N2OS(=O)(=O)O [Example 63, (2S,5R)-sulfuric acid mono-[2-(N′-{2-[2-((S)-pyrrolidin-3-oxy)-phenyl]-acetyl}-hydrazinocarbonyl)-7-oxo-1,6-diaza-bicyclo[3.2.1]oct-6-yl]ester] | 2 (≈ 4.14 µM) | 8 (≈ 16.5 µM) | 2 (≈ 4.14 µM) | 79 | 102 | 4120 |  |  | 
Nc1ccc(CC(=O)NNC(=O)[C@@H]2CC[C@@H]3CN2C(=O)N3OS(=O)(=O)O)cc1 [Example 11, (2S,5R)-sulfuric acid mono-[2-(N′-(4-aminophenyl-acetyl)-hydrazinocarbonyl)-7-oxo-1,6-diaza-bicyclo[3.2.1]oct-6-yl]ester] |  |  |  | 32 | 10 | 408 | 0.5 (≈ 1.21 µM) | 1 (≈ 2.42 µM) | 1 (≈ 2.42 µM)
NCCCOc1ccccc1CC(=O)NNC(=O)[C@@H]1CC[C@@H]2CN1C(=O)N2OS(=O)(=O)O [Example 34, (2S,5R)-sulfuric acid mono-[2-(N′-{2-[2-(3-amino-propoxy)-phenyl]-acetyl}-hydrazinocarbonyl)-7-oxo-1,6-diaza-bicyclo[3.2.1]oct-6-yl]ester] | 2 (≈ 4.24 µM) | 2 (≈ 4.24 µM) | 2 (≈ 4.24 µM) | 79 | 60 | 3810 |  |  | 
